Values after ≈ are worked out from the molar mass of the structure shown. Read-outs that look alike come from different tables or passages of the source. One block for each molecule: values may come before it.
Key:
[1] = design: method as in Huang et al., 2005; settings: rats; ref Huang et al., 2005; cited from earlier work
[2] = source not stated; cited from earlier work
[3] = In vivo lymphatic transport in anesthetized mesenteric lymph duct-cannulated rats; design: species or system rat; settings: scutellarin 25 mg/kg intragastric, anesthetized female rats
[4] = design: method as in Marina Shamis and Shabat, 2003; Ma et al., 2015; settings: Figure 2; ref Marina Shamis and Shabat, 2003; Ma et al., 2015; cited from earlier work
[5] = cited from earlier work
[6] = design: method as in Lu et al., 2010; settings: humans, 60 mg of scutellarin taken orally; ref Lu et al., 2010; cited from earlier work
[7] = Oral bioavailability / pharmacokinetic study in conscious female S-D rats (plasma scutellarin by UHPLC-MS/MS); settings: Sprague-Dawley (S-D), rat, in vivo
Protocol: Scutellarin exposure after oral administration of scutellarin and prodrugs was detected in conscious female S-D rats. The rats were fasted for 12 h before the experiment and divided into three groups (n = 5 each group) randomly: scutellarin solution (25 mg/kg), Scu-Me-C5-TG solution (62.5 mg/kg equivalent to Scu), Scu-Me-C5-βMe-TG solution (62.5 mg/kg equivalent to Scu). Blood samples (0.5 mL) were collected from 5 min before administration to up to 24 h post-dosing and centrifuged at 16,000 rpm for 15 min to separate plasma. 100 μL plasma was added into 900 μL methanol and vortexed for 5 min, then centrifuged at 16,000 rpm for 15 min. The supernatant was sampled and used for UHPLC-MS/MS detection. The pharmacokinetic parameters were calculated by DAS 2.0 software.

Compound: O=C(O)[C@H]1O[C@@H](Oc2cc3oc(-c4ccc(O)cc4)cc(=O)c3c(O)c2O)[C@H](O)[C@@H](O)[C@@H]1O [Scutellarin]
oral bioavailability [1]: 10.6%
pKa [2]: 3-5
drug in collected mesenteric lymph (mass spectrometry) [3]: failed to reach the limit of quantification
water solubility [4]: 20 µg/mL (≈ 43.3 µM)
Log P ([5]; source not stated): −2.56
Plasma Cmax [6]: < 5.0 ng/mL

F rel [7]: 245.2%
maximum plasma concentration (Cmax), fold of the parent drug [7]: 2.11 fold
relative oral bioavailability (Frel), fold of scutellarin [7]: 2.45 fold
Compound: CCCCCCCCCCCCCCCC(=O)OCC(COC(=O)CCCCCCCCCCCCCCC)OC(=O)CC(C)CC(=O)Oc1ccc(-c2cc(=O)c3c(O)c(O)c(O[C@@H]4O[C@H](C(=O)OC)[C@@H](O)[C@H](O)[C@H]4O)cc3o2)cc1 (stereo partly shown) [Scu-Me-C5-βMe-TG]

F rel [7]: 223.8%
maximum plasma concentration (Cmax), fold of the parent drug [7]: 1.72 fold
relative oral bioavailability (Frel), fold of scutellarin [7]: 2.24 fold
Compound: CCCCCCCCCCCCCCCC(=O)OCC(COC(=O)CCCCCCCCCCCCCCC)OC(=O)CCCC(=O)Oc1ccc(-c2cc(=O)c3c(O)c(O)c(O[C@@H]4O[C@H](C(=O)OC)[C@@H](O)[C@H](O)[C@H]4O)cc3o2)cc1 [Scu-Me-C5-TG, 1,3-bis(palmitoyloxy)propan-2-yl (4-(5,6-dihydroxy-4-oxo-7-(((2S,3R,4S,5S,6S)-3,4,5-trihydroxy-6-(methoxycarbonyl)tetrahydro-2H-pyran-2-yl)oxy)-4H-chromen-2-yl)phenyl) glutarate]

Compound: CC[C@@]1(O)C(=O)OCc2c1cc1n(c2=O)Cc2cc3c(CN(C)C)c(O)ccc3nc2-1 [Topotecan]
Log P ([5]; ref Wang et al., 2017): 0.8

From publication PMC8330727, “Triglyceride-mimetic prodrugs of scutellarin enhance oral bioavailability by promoting intestinal lymphatic transport and avoiding first-pass metabolism” (Drug Delivery, 2021)
